`CCCC(NC(=O)C1CC(=O)c2cc(F)ccc2O1)c1ccccc1` (single isomer, unassigned; (+)) showed a melting point of 138 °C.
In the case of `Cc1nc(-c2ccc(C(F)(F)F)cc2)oc1COc1ccc(OCC(=O)O)cc1`, the melting point is reported as 136 to 138 °C.
In the case of `CC(C)(C)C(NC(=O)c1ccc(Cl)cc1)Nc1c(Nc2cccnc2)c(=O)c1=O` (stereo unspecified), the melting point is reported as 257 to 258 °C.
Work on `O=C(CN1CCSCC1)N1CCC(C2c3ccc(Cl)c(Br)c3CCc3cc(Br)cnc32)CC1` (stereo unspecified) yielded a melting point of 172 to 174 °C.
For `C=C(C)COC1CC2C3CCC4=CC(=O)CCC4(C)C3(F)C(O)CC2(C)C1(O)C(=O)CO` (stereo unspecified), the melting point was 213 to 215 °C.
In the case of `O=c1[nH]c2ccc3ccc(-n4cccc4CN4CCN(Cc5ccccc5)CC4)cc3c2[nH]c1=O`, the melting point is reported as > 250 °C.
Molecule `Cc1cc(Cl)ccc1-n1cnnc1C(F)(F)F` has a melting point of 90 °C.
With `COC(=O)c1ccc2cc(OC)c(OC)cc2c1-c1ccnc(Br)c1` the melting point was 146 to 148 °C.
For `O=[N+]([O-])c1oc2ccc(N3Cc4ccccc4C3)cc2c1-c1ccccc1`, the melting point was 228 to 230 °C.
In the case of `CC(=O)C1CCC2C3CCC4=CC(=O)C=CC4(C)C3C(O)CC12CO[N+](=O)[O-]` (stereo unspecified), the melting point is reported as 162 to 164 °C.
`CC1Nc2ccc(-c3ccc(C#N)n3C)cc2C(C)(C)O1` (stereo unspecified) gave a melting point of 195 to 196 °C.
With `CC(C)(C)OC(=O)N[C@@H](Cc1ccc(O)cc1)C(=O)N[C@H](Cc1ccccc1)C(=O)NCC(=O)O` the melting point was 105 to 110 °C.
For `CNC(=O)N(OC(=O)OC)c1ccc(Cl)c(Cl)c1`, the melting point was 110 °C.
`Nc1cc(=O)n(Cc2ccc(-c3ccccc3)cc2)[nH]1` showed a melting point of 185 to 186 °C.
`O=C1c2ccccc2C(=O)N1OCCCN1CCN(c2ccc3ccccc3n2)CC1` gave a melting point of 158 to 160 °C.
For `O=C1CCC(N2CCOc3cc(Br)ccc32)CC1`, the melting point was 102 °C.
`N#Cc1cc(C(=O)NNC(=O)c2occc2-c2cccs2)ccc1O` showed a melting point of 258 to 259 °C.
In the case of `COc1ccc2c(c1)CNN=C2Cc1c(Cl)cncc1Cl`, the melting point is reported as 181 to 183 °C.
With `CCc1noc(-c2ncn(-c3cccnc3)c2COC)n1` the melting point was 70 to 72 °C.
For `CCCCOc1cc(/C=C/C(=O)O)n(Cc2ccc(C(F)(F)F)cc2Cl)n1`, the melting point was 172 to 174 °C.
`N#Cc1cnn(-c2c(Cl)cc(C(F)(F)F)cc2Cl)c1C=CC(=O)NS(=O)(=O)Cc1ccccc1` showed a melting point of 178 to 183 °C.
Work on `CCOc1ccc(-c2ccc(-c3ccc(C4CCC(c5c(F)cccc5F)=N4)cc3)cc2)s1` (stereo unspecified) yielded a melting point of 128 to 134 °C.
`O=C(Nc1ccc(N2CCN(C(=O)Nc3ccc(C(=O)O)cc3Cl)CC2)cc1)Nc1ccccc1F` showed a melting point of 250 to 253 °C.
Work on `C/C(=C\c1ccc(C(=O)O)cc1)c1ccc2c(c1)C(C)(C)C(=O)CC2(C)C` yielded a melting point of 260 to 261 °C.
`ClCCCCSCc1ccc2ccccc2c1` gave a melting point of 47 to 49 °C.
Work on `O=C1c2ccccc2-c2ccccc2C1(O)C(F)(F)F` (stereo unspecified) yielded a melting point of 148 to 151 °C.
For `CC1=C(C(=O)O)C(C)(C)CCC1=O`, the melting point was 181 to 183 °C.
`CCCCc1nc2c(N)nc3ccccc3c2n1CCOc1ccccc1` gave a melting point of 168 to 170 °C.
With `CCCN(CCCC(=O)Nc1c(C(C)C)nc(C)nc1N(CC)CC)c1ccccc1` the melting point was 129 to 131 °C.
Molecule `COC(=O)N[C@H](C(=O)NN(Cc1ccc(-c2cncs2)cc1)C[C@H](O)[C@H](Cc1ccccc1)NC(=O)[C@@H](NC(=O)OC)C(C)(C)C)C(C)C` has a melting point of 134 to 135 °C.
For `N#CNC(=Nc1ccncc1)NCC(O)COc1ccc(Cl)cc1` (stereo unspecified), the melting point was 149 to 151 °C.

— a melting point compilation (Tetko et al.; mined from patent text by program, amines drawn as free bases though some values may be those of a salt)
